Key:
HME-RhoC cells [1] = assay: Apoptosis / cell population of cells treated with thiopurines; format: cell-based, human; conditions: not shown
RhoC [2] = molecular target: T1, RhoC (Homo sapiens, UniProt P08134); assay: Redox agent-mediated 6-TGDP dissociation (FIG. 16C); format: biochemical; set-up: made in house; host or cells: E. coli; conditions: 6-TGDP-loaded RhoC treated with redox agent, free [3H]GDP 10 μM
Protocol: (§1) FIG. 16. Kinetic properties of RhoC with 6-TGDP in the presence or absence of a redox agent. All kinetic analyses are described elsewhere herein. (A) ^appKD values of Rac1, RhoA, RhoC, and RhoC C20S for 6-TGDP were estimated to be 7.9, 11.6, 11.8, and 11.2 μM, respectively. ^trueKD values of Rac1, RhoA, […] for 6-TGDP were then calculated to be 5.1, 10.8, 11.1, and 10.5 μM, respectively, by using a compensation equation, ^trueKD for 6-TGDP=^appKD for 6-TGDP/(1+[[^3H]GDP]/^trueKD for GDP) (Heo, J., and Hong, I. (2010) Biochemistry 49, 3965-3976), in conjunction with the values given. […] The GDP dissociation rates from RhoC C20S by NO, .NO2, and N2O3 were estimated to be 0.02×10^−3, 0.05×10^−3, and 0.04×10^−3 s^−1, respectively. […] (D) ^appKD values of RhoC for [^3H]GDP in the presence or absence of DTT were estimated to be 22.4 μM and […], respectively. ^appKD values of C20S RhoC for [^3H]GDP in the presence or absence of DTT were determined to be 24.8 μM and 25.2 μM, respectively. The regression values associated with these fits were >0.8595. All data points associated with vertical standard error bars shown in this figure are the mean values of triplicate measurements.
(§2) Transition metal-free assay buffer and vials as described in a previous study (Heo et al. Biochemistry 49, 3965-3976 (2010)) were used for all kinetic assays. The kinetic assay buffer contains the highest grade of 50 mM NaCl, 10 mM MgCl2, 1 mM EDTA, and 0.1 mM DTPA in 50 mM TrisHCl (pH 7.4). Before performance of any of the assays, all protein samples also were dialyzed with a metal-free buffer under anaerobic conditions. As with RhoA and Rac1 (Heo et al. J. Biol. Chem. 280, 31003-31010 (2005)), C20S RhoC were expressed in E. coli and purified using anionic and size exclusion columns.
(§3) (c) To test the Rho 6-TGDP-binding interaction in the presence of redox agents, the 6-TGDP-loaded RhoC protein was treated with redox agents in the presence of free […] (10 μM). An association of RhoC protein with [^3H]GDP to produce a RhoC-[^3H]GDP complex will occur proportionally after RhoC releases 6-TGDP through the action of redox agents. Therefore, the fraction of the redox agent-mediated release of the bound 6-TGDP per Rho protein over time can be deduced by determination of the RhoC-bound [^3H]GDP, where the quantity of RhoC-bound 6-TGDP equals 1 minus the determined fraction of the RhoC-bound [^3H]GDP as described in Section (b). The estimated data associated with the quantity of RhoC-bound 6-TGDP then was fitted to a one-phase exponential decay; Prism software was used to derive the rate of 6-TGDP dissociation from RhoC.

RhoC C20S [3] = molecular target: T2, RhoC C20S (Homo sapiens, UniProt P08134, C20S); assay: as above; format: biochemical; set-up: made in house; host or cells: E. coli; conditions: 6-TGDP-loaded RhoC C20S treated with redox agent, free [3H]GDP 10 μM
T2 sequence (P08134 whole entry C20S): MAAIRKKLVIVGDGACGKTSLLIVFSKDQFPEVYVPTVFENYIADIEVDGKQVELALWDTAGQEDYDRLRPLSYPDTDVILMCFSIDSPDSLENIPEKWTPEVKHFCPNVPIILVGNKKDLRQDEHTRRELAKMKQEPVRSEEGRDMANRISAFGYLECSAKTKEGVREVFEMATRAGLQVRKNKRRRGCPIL
Protocol: as §1, §2, §3

RhoC [4] = molecular target: T1, RhoC; assay: Redox agent-mediated GDP dissociation (FIG. 16B); format: biochemical; set-up: made in house; host or cells: E. coli; conditions: [3H]GDP-loaded RhoC 1 μM, redox agent ~3 μM, free GDP 10 μM, anaerobic
Protocol: as §1, §2
(§4) (b) The effect of redox agents such as NO, .NO2, and N2O3 on the binding interaction between RhoC proteins and GDP or 6-TGDP was examined under N2-filled serum-stoppered anaerobic experimental conditions (O2<3 ppm). These anaerobic experimental conditions were necessary to block the reaction of NO or .NO2 with O2 to produce higher oxides. The contents of NO and .NO2, respectively, in the sealed assay vials were determined by using a hemoglobin assay and NO2^−/NO3^− Assay Kit-C II (Dojindo) under anaerobic conditions (Heo et al. J. Biol. Chem. 280, 31003-31010 (2005); Heo et al. Biochemistry 43, 2314-2322 (2004)). N2O3 was generated by mixing NO and .NO2 1:1 stoichiometrically. […] The fraction of the redox agent-mediated release of the bound [^3H]GDP per Rho protein over time was determined as noted above, and the result was plotted against time. The rates of RhoC GDP dissociation in the presence of redox agents were determined by using Prism software to fit the result to a one-phase exponential decay.

RhoC C20S [5] = molecular target: T2, RhoC C20S; assay: Redox agent-mediated GDP dissociation (FIG. 16B); format: biochemical; set-up: made in house; host or cells: E. coli; conditions: [3H]GDP-loaded protein 1 μM, redox agent ~3 μM, free GDP 10 μM, anaerobic
Protocol: as §1, §2, §4

SUM149 cells [6] = assay: MTT cell viability and caspase-3/8 assays; format: cell-based, human; conditions: NO donor alone; FIG. 25
Source text: (§5) FIG. 25. […] (B) Caspase-3/8 assay: the apoptotic activity of sample cells treated with the apoptotic inducer was set to be 100%, and other results were then expressed as normalized values against the mean value associated with the treatment with the apoptotic inducer. For both (A) and (B), all values represent the mean values and standard error values from triplicate measurements.

HME-C20S RhoC cells [7] = assay: MTT cell viability and caspase-3/8 assays; format: cell-based, human; conditions: NO donor alone; FIG. 25
Source text: as §5

HME-RhoC cells [8] = assay: MTT cell viability and caspase-3/8 assays; format: cell-based, human; conditions: NO donor alone; FIG. 25
Source text: as §5

MLC = MLC phosphorylation in A7r5 cells; format: cell-based, rat; conditions: only NO donor, DETA/NO ≅10 μM, FIG. 20B
Protocol: (§6) FIG. 20. Determination of RhoA activity and MLC phosphorylation. […] Cell lysates in a buffer containing 1% NP-40, 10 mM EDTA, and 20 mM TrisHCl (pH 7.4) were centrifuged (50,000×g, 20 min) to remove solid matter. (A) The soluble cell extract was then used to perform Western blot analyses for RhoA and the MLC. This cell extract also was used for the co-IP-based ESI-MS analysis (FIG. 6). (B) A RhoA activity assay was colorimetrically determined using cell extract; the assay was performed with the RhoA G-LISA Activation Assay Kit (Cat. No. BK124) (Denver, Colo.). To examine the level of phosphorylation of the MLC, cells were cultured with ˜5 μCi of ^32P in 1 mL of phosphate-free DMEM. The collected cell extract was nutated with resin coupled with a macrophage myosin II antibody at 4° C. for 5 h. Resin was collected by centrifugation, and proteins bound to the resin were washed and eluted with a buffer (80° C.) containing […], 5 mM DTT, and 10 mM TrisHCl (pH 6.8). The immunoprecipitates were then analyzed by SDS-PAGE and autoradiographed. The values of RhoA activity and the MLC phosphorylation determined from untreated cells were set at 100%. […] The data represented in the figure represent the mean values of triplicate measurements, and the vertical error bar indicates standard errors.

HME-RhoC cells [9] = assay: Matrigel invasion (cell motility) assay; format: cell-based, human; conditions: NO donor alone 10 μM, three days continuous; FIG. 14A
Protocol: FIG. 5. Determination of cell invasiveness in the presence and absence of 6-thiopurine and/or a redox agent. The top chamber of a Transwell filter (6.5 mm with 8 μm pores, Costar; Corning, N.Y.) was coated with a 10 μL aliquot of 10 mg/mL Matrigel (BD Biosciences, Bedford Mass.), and the lower chamber of the Transwell was filled with either serum-free or serum-containing media. Sample cells (e.g., 6-TG-resistant HME-RhoC cells) were prepared to resuspend cells in a serum-free medium with 0.1% BSA at a concentration of 4×10^5 cells/mL. At this point, neither 6-thiopurine nor GSNO were added to the cells. The sample cells (0.5 mL) were added to the top chamber of a Transwell filter and were incubated for 24 h at 37° C. in a 10% CO2 incubator. The Transwell filters were fixed with methanol, stained with H&E, and cells in the serum-containing samples were counted. The number of cells that had invaded the serum-free medium-containing lower chambers was used as a control background. Results are given as percent invasion over that seen in HME-RhoC cells (100%) and represent mean and standard error values from triplicate measurements.
FIG. 11. Determination of cell invasiveness in the presence and absence of […] and/or a redox agent. […] The number of cells that had invaded the serum-free medium-containing lower chambers was used as a control background. Results are given as percent invasion over that seen in HME-RhoC cells (100%) and represent mean and standard error values from triplicate measurements.
(§7) FIG. 14. Determination of cell invasiveness in the presence and absence of thiopurines and/or redox agents. […] Western blot analysis representing the total expression of RhoC in these cells also is shown. (B) Experimental procedures for the determination of the time-dependent motility of cells using the QCM Cell Invasion Assay kit in the presence and absence of 6-TG and DETA/NO are described elsewhere herein.
(§8) The top chamber of a Transwell filter (6.5 mm with 8 μm pores, Costar; Corning, N.Y.) was coated with a 10 μL aliquot of 10 mg/mL Matrigel, and the lower chamber of the Transwell was filled with either serum-free or serum-containing media. Sample cells were prepared to resuspend cells in a serum-free medium with 0.1% BSA at a concentration of 4×10^5 cells/mL. […] The Transwell filters were fixed with methanol, stained with haematoxylin and eosin, and cells in the serum-containing samples were counted. The number of cells that had invaded the serum-free, medium-containing lower chambers was used as a control background.

RhoC C20S [10] = molecular target: T2, RhoC C20S; assay: RhoC expression (Western) and RhoC activity assay in cells; format: cell-based; set-up: expressed in transfected cells; host or cells: human mammary epithelial (HME) cells; conditions: HME-C20S RhoC cells, NO donor alone, three days
Protocol: as §7
(§9) Cells were lysed in an extraction buffer containing 50 mM NaCl, 5 mM MgCl2, 1 mM ethylenediaminetetraacetic acid (EDTA), 0.1 mM diethylenetriaminepentaacetic acid (DTPA), and 0.1% NP40 in 150 mM TrisHCl (pH 8.0). The content of […] RhoC in cells then was determined by using Western analysis that relies on a monoclonal anti-RhoC antibody (Biocompare, South San Francisco, Calif.). To determine RhoC activity, the colorimetric RhoA activation assay Biochem Kit (Cytoskeleton, Denver, Colo.) was used essentially as described in the previous study (Hall et al. Neoplasia 10, 797-803 (2008)) except that the RhoC specific antibody (vide supra), instead of the RhoA antibody included in the assay kit, was used for this analysis.

RhoC [11] = molecular target: T1, RhoC; assay: as above; format: cell-based; set-up: endogenous in cells; host or cells: SUM149, SUM102, SW480, HCCLM3 (endogenous); HME-RhoC (transfected with wild type RhoC); conditions: SUM149 and HME-RhoC cells, NO donor alone, three days
Protocol: as §7, §9

RhoA = molecular target: T3, RhoA (Rattus norvegicus, UniProt P61589); assay: RhoA expression (Western) and RhoA G-LISA activity in A7r5 cells; format: cell-based
T3 construct: endogenous in cells; host or cells: A7r5 cells (rat aortic vascular smooth muscle)
T3 sequence (P61589 whole entry): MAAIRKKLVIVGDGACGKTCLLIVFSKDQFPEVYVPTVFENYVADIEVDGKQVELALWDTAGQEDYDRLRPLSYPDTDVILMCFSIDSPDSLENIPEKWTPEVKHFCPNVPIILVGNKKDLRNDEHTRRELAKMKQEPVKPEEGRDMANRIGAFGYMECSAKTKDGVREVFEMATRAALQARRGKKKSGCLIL
Protocol: as §6

SUM149 cells [12] = assay: Matrigel invasion (cell motility) assay; format: cell-based, human; conditions: NO donor alone 10 μM, three days continuous; FIG. 14A
Source text: as §7, §8

HME-C20S RhoC cells [13] = assay: Matrigel invasion (cell motility) assay; format: cell-based, human; conditions: NO donor alone 10 μM, three days continuous; FIG. 14A
Source text: as §7, §8

T1 sequence (P08134 whole entry): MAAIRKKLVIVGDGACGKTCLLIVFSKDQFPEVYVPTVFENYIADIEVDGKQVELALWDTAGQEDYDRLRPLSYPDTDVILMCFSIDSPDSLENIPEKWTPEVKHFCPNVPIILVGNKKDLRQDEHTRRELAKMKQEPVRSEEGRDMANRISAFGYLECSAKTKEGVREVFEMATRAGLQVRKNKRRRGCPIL

Structure (SMILES)	cell population with other 6-TG analogs (HME-RhoC cells [1])	rate of 6-TGDP dissociation (RhoC [2])	rate of 6-TGDP dissociation (RhoC C20S [3])	rate of GDP dissociation (RhoC [4])	rate of GDP dissociation (RhoC C20S [5])	effect on invasive cell motility (HME-RhoC cells [9])	effect on RhoC activity (RhoC C20S [10])	effect on RhoC activity (RhoC [11])	effect on invasive cell motility (SUM149 cells [12])	effect on invasive cell motility (HME-C20S RhoC cells [13])	also measured
Sc1ncnc2nc[nH]c12 [6-MP, 6-mercaptopurine]	decrease in the cell population	–	–	–	–	–	–	–	–	–	–
[O]N=O [.NO2, nitrogen dioxide]	–	0.00265 s⁻¹	0.00627 s⁻¹	0.00604 s⁻¹	5e-05 s⁻¹	–	–	–	–	–	–
Cn1cnc([N+](=O)[O-])c1Sc1ncnc2nc[nH]c12 [AZA, azathioprine]	decrease in the cell population	–	–	–	–	–	–	–	–	–	–
NCCN(CCN)/[N+]([O-])=N/O [DETA/NO, diethylenetriamine nitric oxide adduct]	–	–	–	–	–	minimal	minimal	minimal	minimal	minimal	cell viability and caspase activity (SUM149 cells [6]): minimally changed; cell viability and caspase activity (HME-C20S RhoC cells [7]): minimally changed; cell viability and caspase activity (HME-RhoC cells [8]): minimally changed; MLC dephosphorylation (MLC): sizable fraction of the MLC was dephosphorylated; concentration of NO donor alone required for RhoA inactivation (RhoA; not shown): > 50 µM; RhoA inactivation (RhoA; only NO donor, DETA/NO ≅10 μM, FIG. 20B): minimal fraction of RhoA was inactivated
N[C@@H](CCC(=O)N[C@@H](CSN=O)C(=O)NCC(=O)O)C(=O)O [GSNO, S-Nitrosoglutathione]	–	–	–	–	–	minimal	minimal	minimal	minimal	minimal	–
[N]=O [NO, nitric oxide]	–	8e-05 s⁻¹	4e-05 s⁻¹	0.00019 s⁻¹	2e-05 s⁻¹	–	–	–	–	–	–

Source: patent US8729047B2, “Compositions for inhibiting redox-sensitive GTPases” (Board of Regents, The University of Texas System, priority 2010, dated 2014)
